Results: PubChem BioAssay AID328 (DTP/NCI, 2004)
Values joined by “and” are separate entries in the source; they are usually repeats but may differ in a detail not shown here. Equal values may be shown once. Toxic doses and inconclusive results are not listed.

System: BDF1 mice, P388 leukemia ip, median survival T/C
Assay: NCI In Vivo Anticancer Drug Screen. Data for tumor model P388 Leukemia (intraperitoneal) in B6D2F1 (BDF1) mice
Conditions: endpoint: median survival time, higher = longer survival
Outline: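 Survival ratio, drug arm over vehicle arm, in mice with a transplanted tumour.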

[1] = dose: 200.0 mg/kg/injection, schedule: Q04DX003 (ip), vehicle: saline
[2] = dose: 400.0 mg/kg/injection, schedule: Q04DX003 (ip), vehicle: saline
[3] = dose: 50.0 mg/kg/injection, schedule: Q01DX009 (ip), vehicle: saline with Tween-80
[4] = dose: 200.0 mg/kg/injection, schedule: Q01DX009 (ip), vehicle: saline with Tween-80

**Q.** For `O=C(CSc1cc(-c2ccc(Cl)cc2)s[s+]1)c1ccc(Cl)cc1`, which T/C (dose: 12.5 mg/kg/injection, schedule: Q01DX009 (ip), vehicle: saline) is on record?
**A.** 109 % of control

**Q.** And the T/C (dose: 25.0 mg/kg/injection, schedule: Q01DX009 (ip), vehicle: saline)?
**A.** 89 % of control

**Q.** And the T/C (dose: 50.0 mg/kg/injection, schedule: Q01DX009 (ip), vehicle: saline)?
**A.** 89 % of control

**Q.** What about the T/C (dose: 50.0 mg/kg/injection, schedule: Q04DX003 (ip), vehicle: saline) of the same molecule?
**A.** 97 % of control

**Q.** What about the T/C (dose: 100.0 mg/kg/injection, schedule: Q01DX009 (ip), vehicle: saline) of the same molecule?
**A.** 101 % of control

**Q.** What about the T/C (dose: 100.0 mg/kg/injection, schedule: Q04DX003 (ip), vehicle: saline) of the same molecule?
**A.** 90 % of control and 100 % of control and 105 % of control

**Q.** And the T/C (dose: 200.0 mg/kg/injection, schedule: Q01DX009 (ip), vehicle: saline)?
**A.** 107 % of control

**Q.** What about the T/C [1] of the same molecule?
**A.** 97 % of control and 111 % of control

**Q.** And the T/C (dose: 300.0 mg/kg/injection, schedule: Q04DX003 (ip), vehicle: saline)?
**A.** 111 % of control

**Q.** What about the T/C [2] of the same molecule?
**A.** 103 % of control

**Q.** For `O=C(Nc1ccc(C2=NCCCN2)cc1)c1ccc(C(=O)Nc2ccc(C3=NCCCN3)cc2)cc1`, which T/C (dose: 7.2 mg/kg/injection, schedule: Q04DX003 (ip), vehicle: Klucel (hydroxypropylcellulose) (HPC)) is on record?
**A.** 177 % of control

**Q.** What about the T/C (dose: 8.7 mg/kg/injection, schedule: Q04DX003 (ip), vehicle: saline with Tween-80) of the same molecule?
**A.** 152 % of control

**Q.** What about the T/C (dose: 10.8 mg/kg/injection, schedule: Q04DX003 (ip), vehicle: other) of the same molecule?
**A.** 194 % of control

**Q.** What about the T/C (dose: 12.0 mg/kg/injection, schedule: Q04DX003 (ip), vehicle: Klucel (hydroxypropylcellulose) (HPC)) of the same molecule?
**A.** 194 % of control

**Q.** What about the T/C (dose: 13.2 mg/kg/injection, schedule: Q04DX003 (ip), vehicle: saline with Tween-80) of the same molecule?
**A.** 168 % of control and 172 % of control

**Q.** And the T/C (dose: 18.0 mg/kg/injection, schedule: Q04DX003 (ip), vehicle: other)?
**A.** 203 % of control

**Q.** What about the T/C (dose: 20.0 mg/kg/injection, schedule: Q04DX003 (ip), vehicle: Klucel (hydroxypropylcellulose) (HPC)) of the same molecule?
**A.** 250 % of control

**Q.** What about the T/C (dose: 20.0 mg/kg/injection, schedule: Q04DX003 (ip), vehicle: saline with Tween-80) of the same molecule?
**A.** 250 % of control and 195 % of control

**Q.** And the T/C (dose: 30.0 mg/kg/injection, schedule: Q04DX003 (ip), vehicle: other)?
**A.** 97 % of control

**Q.** What about the T/C (dose: 30.0 mg/kg/injection, schedule: Q04DX003 (ip), vehicle: saline with Tween-80) of the same molecule?
**A.** 268 % of control and 272 % of control

**Q.** What about the T/C (dose: 33.3 mg/kg/injection, schedule: Q04DX003 (ip), vehicle: Klucel (hydroxypropylcellulose) (HPC)) of the same molecule?
**A.** 250 % of control

**Q.** Which results are given for `Cc1cc2nc3c(=O)[nH]c(=O)nc-3n(CC(O)C(O)C(O)CO)c2cc1C` (configuration not stated)?
**A.** T/C (dose: 12.5 mg/kg/injection, schedule: Q01DX009 (ip), vehicle: saline with Tween-80): 102 % of control; T/C (dose: 25.0 mg/kg/injection, schedule: Q01DX009 (ip), vehicle: saline with Tween-80): 94 % of control; T/C [3]: 107 % of control

**Q.** `CNC(=O)C(C)(C)Br` was tested. Which T/C [1] did it give?
**A.** 100 % of control

**Q.** And the T/C [2]?
**A.** 90 % of control

**Q.** With `CC(C)=CCC1=C(OC2OC(CO)C(O)C(O)C2O)C(=O)c2ccccc2C1=O` (configuration not stated) as the molecule, how does the T/C (dose: 1.56 mg/kg/injection, schedule: Q01DX009 (ip), vehicle: saline with Tween-80) read?
**A.** 123 % of control

**Q.** What about the T/C (dose: 3.13 mg/kg/injection, schedule: Q01DX009 (ip), vehicle: saline with Tween-80) of the same molecule?
**A.** 160 % of control

**Q.** Which results are given for `O=C(Nc1cccc(Cl)c1)NN(c1ccccc1)C1CCS(=O)(=O)C1` (configuration not stated)?
**A.** T/C [3]: 99 % of control; T/C (dose: 100.0 mg/kg/injection, schedule: Q01DX009 (ip), vehicle: saline with Tween-80): 98 % of control; T/C [4]: 100 % of control

**Q.** How did the T/C [3] turn out when `CN(C)c1ccc(/C=C/c2ccnc3ccc(Cl)cc23)cc1` was run?
**A.** 100 % of control

**Q.** And the T/C [4]?
**A.** 100 % of control

**Q.** How did the T/C (dose: 33.0 mg/kg/injection, schedule: Q01DX009 (ip), vehicle: saline with Tween-80) turn out when `CCCOP(=S)(N1CC1C)N1CC1(C)C` (configuration not stated) was run?
**A.** 154 % of control

**Q.** What about the T/C [3] of the same molecule?
**A.** 186 % of control

**Q.** And the T/C (dose: 75.0 mg/kg/injection, schedule: Q01DX009 (ip), vehicle: saline with Tween-80)?
**A.** 190 % of control

**Q.** What about the T/C (dose: 100.0 mg/kg/injection, schedule: Q04DX003 (ip), vehicle: saline with Tween-80) of the same molecule?
**A.** 159 % of control and 166 % of control

**Q.** And the T/C (dose: 150.0 mg/kg/injection, schedule: Q04DX003 (ip), vehicle: saline with Tween-80)?
**A.** 208 % of control

**Q.** And the T/C (dose: 200.0 mg/kg/injection, schedule: Q04DX003 (ip), vehicle: saline with Tween-80)?
**A.** 154 % of control

**Q.** With `CC(C)n1c(=S)[nH]c2ccccc2c1=O` as the molecule, how does the T/C (dose: 100.0 mg/kg/injection, schedule: Q01DX001 (ip), vehicle: Klucel (hydroxypropylcellulose) (HPC)) read?
**A.** 100 % of control

**Q.** What about the T/C (dose: 200.0 mg/kg/injection, schedule: Q01DX001 (ip), vehicle: Klucel (hydroxypropylcellulose) (HPC)) of the same molecule?
**A.** 100 % of control

**Q.** What about the T/C (dose: 400.0 mg/kg/injection, schedule: Q01DX001 (ip), vehicle: Klucel (hydroxypropylcellulose) (HPC)) of the same molecule?
**A.** 100 % of control
